# In patent US8563261B2, “Method of diagnosing and treating interstitial cystitis” (The Trustees of the University of Pennsylvania, priority 2009, dated 2013):
# Entries after “also recorded” stand apart in the source; their conditions may differ.
# What was measured:
# [1] = system: human primary urothelial cells; assay: growth of cultured human primary urothelial cells (proliferation assay); format: cell-based; details: 20 μM ET-1
# Text: Control cultures receive only the vehicle.
# [2] = system: cultured urothelial cells; assay: Click-iT EdU assay of newly synthesized DNA; format: cell-based; details: ET-1 10 nM (25 ng/ml) vs control
# Text: Click-iT EdU assay (Invitrogen) was used to detect and quantify newly synthesized DNA. […] In Click-iT assay, EdU can be detected by green fluorescent dye and nuclei can be detected by blue fluorescent dye. Using fluorescent microplate reader (Synergy2, BioTek) both green and blue fluorescent signal were detected and quantified as shown in the bar graph of FIG. 3).
# [3] = system: rabbit primary urothelial cells; details: ET-1 at 20 μM
# Protocol: Briefly, explanted epithelial cells propagated from fresh biopsy specimens are grown in DMEM-F12 with 10% heat-inactivated fetal bovine serum, 1% antibiotic/antimycotic, 1% L-glutamine, 1.0 unit/ml insulin (all from Sigma), and 5 μg/ml human epidermal growth factor at 37° C. in a humidified atmosphere of 5% CO2 and 95% air. […] Cell proliferation is assessed also by ^3H-thymidine incorporation and by cell counting using a haemocytometer. ET-1 samples are diluted at varying concentrations in serum-free MEM (containing only glutamine and antibiotics) and applied to cells. Control cultures receive only the vehicle. Cells are fed with serum-free medium for the proliferation assay.
# Cultures are exposed to 1 μCi per well ^3H-thymidine (1 Ci=37 GiBg) for 4 hrs and trypsinized, sedimented by brief centrifugation (3,000 rpm for 10 min) and the cell pellets are washed with a buffer containing cold thymidine and the radioactivity determined using a scintillation counter. The ^3H-thymidine incorporation is expressed as a mean decrease in cpm of >2 SD from the mean of control cells for each plate. […] After developing the autoradiographs in D-19 (15° C.) and fixation, culture plates are stained with H &E. Cultures are examined under a light microscope and the number of cells showing silver grains in the nuclei from 10 selected fields on the culture plate are counted. […]
smiles,measurement,setting,value
"CC[C@H](C)[C@H](NC(=O)[C@H](CC(=O)O)NC(=O)[C@H](CC(C)C)NC(=O)[C@H](Cc1c[nH]cn1)NC(=O)[C@@H]1CSSC[C@H](N)C(=O)N[C@@H](CO)C(=O)N[C@H]2CSSC[C@H](NC(=O)[C@H](CCC(=O)O)NC(=O)[C@H](CCCCN)NC(=O)[C@H](CC(=O)O)NC(=O)[C@H](CCSC)NC(=O)[C@H](CC(C)C)NC(=O)[C@H](CO)NC(=O)[C@H](CO)NC2=O)C(=O)N[C@@H](C(C)C)C(=O)N[C@@H](Cc2ccc(O)cc2)C(=O)N[C@@H](Cc2ccccc2)C(=O)N1)C(=O)N[C@H](C(=O)N[C@@H](Cc1c[nH]c2ccccc12)C(=O)O)[C@@H](C)CC [ET-1, Endothelin-1]",effect on cell growth of cultured human urothelial cells,[1],inhibited; also recorded: inhibition
same,EdU staining (newly synthesized DNA) in cultured urothelial cells,[2],significant decrease
same,inhibition of growth of rabbit primary urothelial cells,[3],30-40%
